Test results taken from article PMC6678576, “Spectroscopic Characterisation of the Naphthalene Dioxygenase from Rhodococcus sp. Strain NCIMB12038” (International Journal of Molecular Sciences, 2019).

Biological target: T1, naphthalene 1,2-dioxygenase (NDO; ISPNAR) from Rhodococcus sp. strain NCIMB12038 (Rhodococcus sp. NCIMB 12038, UniProt Q9X3R9)
T1 construct: gene narAa; native oxygenase component purified from naphthalene-grown Rhodococcus cells; alpha3beta3; Rieske [2Fe-2S] and mononuclear iron; with Naphthalene 1,2-dioxygenase small (beta) subunit
T1 sequence (Q9X3R9 1-470): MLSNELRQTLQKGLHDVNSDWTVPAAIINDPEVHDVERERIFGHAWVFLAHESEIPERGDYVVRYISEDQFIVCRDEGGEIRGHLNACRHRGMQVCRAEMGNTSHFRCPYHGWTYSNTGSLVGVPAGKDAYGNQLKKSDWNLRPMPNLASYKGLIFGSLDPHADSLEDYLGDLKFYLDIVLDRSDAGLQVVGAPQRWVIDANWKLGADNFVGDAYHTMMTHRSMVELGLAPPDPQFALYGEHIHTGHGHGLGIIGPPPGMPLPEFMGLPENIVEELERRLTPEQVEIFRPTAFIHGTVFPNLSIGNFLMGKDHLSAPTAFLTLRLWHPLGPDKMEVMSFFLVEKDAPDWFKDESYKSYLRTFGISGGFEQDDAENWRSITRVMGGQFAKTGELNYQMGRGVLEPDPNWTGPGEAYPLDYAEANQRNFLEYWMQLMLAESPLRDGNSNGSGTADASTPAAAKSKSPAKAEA
T1 sequence (Q7BSK6 1-172 partner): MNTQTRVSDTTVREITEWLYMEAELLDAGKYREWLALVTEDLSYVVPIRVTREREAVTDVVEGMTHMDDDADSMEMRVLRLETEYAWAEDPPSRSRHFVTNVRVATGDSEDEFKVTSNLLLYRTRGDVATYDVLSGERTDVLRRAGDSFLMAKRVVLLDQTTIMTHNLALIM
Test: EPR ([…] K) and UV-Vis of single turnover and peroxide shunt
Assay type: binding
Conditions: dithionite-reduced NDO with O2-saturated naphthalene, or H2O2 peroxide shunt; no reductase or ferredoxin; 50 mM Tris-HCl pH 7.8, 10% ethanol, 10% glycerol, 0.5 mM DTT

c1ccc2ccccc2c1 [naphthalene]
EPR (20 K) and UV-Vis of single turnover and peroxide shunt: NDO, with reduced Rieske and mononuclear iron centres, is able to react with naphthalene
